Reference: patent US5326902A, “Oxyalkyne compounds, pharmaceutical compositions containing them and processes for preparing such compounds and compositions” (Gruenenthal GmbH, priority 1992, dated 1994)

How the values were obtained:
5-lipoxygenase [1] = target: T1, 5-lipoxygenase (Rattus norvegicus, UniProt P12527); assay: Inhibition of 5-lipoxygenase in RBL-1-cells; assay type: cell-based; details: 20 μM [14C]-arachidonic acid, 20 μM calcium ionophore A 23 187, 10 minutes
T1 construct: endogenous in cells; host or cells: RBL-1 cells (rat basophilic leukemia)
T1 sequence (P12527 1-673): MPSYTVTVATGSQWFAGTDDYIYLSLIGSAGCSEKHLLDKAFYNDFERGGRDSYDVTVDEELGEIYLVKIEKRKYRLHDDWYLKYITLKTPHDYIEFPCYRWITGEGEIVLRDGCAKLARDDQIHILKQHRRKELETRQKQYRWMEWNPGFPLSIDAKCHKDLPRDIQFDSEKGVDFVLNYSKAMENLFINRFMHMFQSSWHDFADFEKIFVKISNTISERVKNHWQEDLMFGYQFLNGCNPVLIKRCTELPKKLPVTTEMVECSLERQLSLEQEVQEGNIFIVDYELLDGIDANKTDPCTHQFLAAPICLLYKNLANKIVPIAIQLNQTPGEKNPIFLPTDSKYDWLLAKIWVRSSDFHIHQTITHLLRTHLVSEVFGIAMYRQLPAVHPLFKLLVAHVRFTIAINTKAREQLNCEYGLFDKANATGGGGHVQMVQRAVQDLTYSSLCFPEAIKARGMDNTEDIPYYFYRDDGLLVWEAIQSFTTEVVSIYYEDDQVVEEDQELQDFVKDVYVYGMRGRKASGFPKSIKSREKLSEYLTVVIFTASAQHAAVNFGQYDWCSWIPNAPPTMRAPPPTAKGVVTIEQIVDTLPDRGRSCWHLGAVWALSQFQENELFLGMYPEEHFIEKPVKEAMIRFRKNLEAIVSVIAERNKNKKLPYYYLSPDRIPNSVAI
Procedure: To determine the inhibition of 5-lipoxygenase, rat basophilic leukemia cells (RBL-1-cells) were cultured in vitro, harvested by centrifugation, washed with 50 mM potassium phosphate buffer of pH 7.4, and then suspended in this buffer at 1×10^7 cells/ml. Indomethacin (10 μM) and calcium chloride (2 mM) were added to 1 ml portions of this suspension, and then the mixture was incubated either in the presence of a compound according to the invention in a concentration range of from 0,1 μM to 100 μM or in the presence of a solvent (ethanol and/or dimethyl sulfoxide) for 3 minutes and thereafter with 20 μM of [^14 C]-arachidonic acid and 20 μM of calcium ionophore A 23 187 for 10 minutes. The reaction was stopped by adding 20 μl of glacial acetic acid, and then the mixture was extracted with ethyl acetate to isolate the metabolites of arachidonic acid formed by the enzymatic action of 5-lipoxygenase. These were separated by thin layer chromatography using a solvent mixture known to be suitable for lipoxygenase products [c.f. Jakschik et al., Biochem. Biophys. Res. Commun. 102, 624 (1981)].
The distribution of radioactivity among the different metabolites of arachidonic acid was measured using a TLC Linear Analyzer. By correlating the percentage amounts of the products formed under the action of 5-lipoxygenase (5HETE, isomers of LTB4) in the absence as well as in the presence of different concentrations of compounds according to the invention, the IC50 -values, i.e. the concentrations which cause a 50% inhibition of 5-lipoxygenase, were determined graphically from semilogarithmic plots.

12-lipoxygenase = target: T2, 12-lipoxygenase (Homo sapiens, UniProt P18054); assay: Inhibition of 12-lipoxygenase in human blood; assay type: cell-based; set-up: 3 ml aliquots of human whole blood treated with heparin; from tissue; host or cells: human whole blood (heparinized); details: human whole blood; calcium ionophore A 23 187 15 μg/ml; 37° C., 30 minutes; 12-HETE by HPLC
T2 sequence (P18054 1-663): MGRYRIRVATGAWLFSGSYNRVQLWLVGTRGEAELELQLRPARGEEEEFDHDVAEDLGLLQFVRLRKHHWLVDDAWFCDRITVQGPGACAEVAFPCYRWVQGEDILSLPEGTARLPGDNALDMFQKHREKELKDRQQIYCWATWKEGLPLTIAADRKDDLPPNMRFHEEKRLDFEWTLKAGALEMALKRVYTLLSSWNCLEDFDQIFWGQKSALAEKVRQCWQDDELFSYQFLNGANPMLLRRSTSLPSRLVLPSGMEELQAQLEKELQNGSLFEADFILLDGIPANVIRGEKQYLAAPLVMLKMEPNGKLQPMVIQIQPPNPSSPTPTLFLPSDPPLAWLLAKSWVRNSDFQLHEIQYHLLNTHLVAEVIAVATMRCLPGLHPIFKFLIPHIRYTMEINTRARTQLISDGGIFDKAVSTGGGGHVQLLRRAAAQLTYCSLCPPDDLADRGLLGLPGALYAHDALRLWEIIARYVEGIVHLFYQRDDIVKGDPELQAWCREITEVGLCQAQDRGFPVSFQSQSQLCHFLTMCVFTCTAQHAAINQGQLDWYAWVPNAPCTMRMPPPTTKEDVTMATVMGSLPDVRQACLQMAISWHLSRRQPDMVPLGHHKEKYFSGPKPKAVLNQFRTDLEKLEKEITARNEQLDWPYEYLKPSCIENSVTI
Procedure: 3 ml aliquots of human whole blood treated with heparin were incubated either with a compound according to the invention or with dimethyl sulfoxide at 37° C. for 5 minutes. Then 12-lipoxygenase was activated by addition of calcium ionophore A 23 187 (15 μg/ml blood). After incubation at 37° C. for 30 minutes and centrifugation, cell-free plasma was obtained. Plasma protein was precipitated by addition of 2 ml of ethanol per ml of plasma and then separated by centrifugation. After adjusting the ethanol content in the supernatant with water to 10% by volume, the 12-lipoxygenase product 12-HETE was enriched by solid phase extraction using an octadecyl silica column. The methanolic eluate was evaporated to dryness, diluted in 40% by volume of methanol, and the 12-HETE-content was determined by HPLC. The IC50 -values of the compounds of the invention prepared according to Examples 1, 8 and 16 were 2, 4 and 3 μmolar, respectively.

5-lipoxygenase [2] = target: T1, 5-lipoxygenase; assay: Inhibition of Cell-free 5-lipoxygenase from RBL-1-cells (polarographic, 10,000 × g supernatant); assay type: biochemical; details: 10,000 × g supernatant of homogenized RBL-1-cells; arachidonic acid 75 μM; 35° C.; calculated IC50
Procedure: Cell-free 5-lipoxygenase was polarographically measured from 10,000 × g supernatant of homogenized rat basophilic leucemia cells (M. Haurand & L. Flohe in Biol. Chem. Hoppe-Seyler 369, 133 to 142 (1988)). After preincubation of the 10,000 × g supernatant with arachidonic acid (75 μM), ATP (adenosine triphosphate; 4 mM), reduced glutathione (4 mM), and either a compound according to the invention (0.1 to 100 μM) or a solvent (ethanol and/or dimethyl sulfoxide) at 35° C. for 5 minutes, the lipoxygenase reaction was initiated by addition of calcium chloride (3 mM) and simultaneously recorded.
The activity of 5-lipoxygenase was determined from the difference in the pO2 -decrease before and after addition of calcium chloride. The evaluation included the initial rate of the reaction after the lag-phase as well as the duration of the lag-phase. In the concentration range of from 3 to 50 μM, the test substances induced lag-phases between 20 and 60 seconds.

## CC(=O)N(O)Cc1ccc(C(O)C#Cc2ccccc2)cc1 (racemic) [Example 1, N-Hydroxy-N-[4-[1-hydroxy-3-phenyl-prop-2-yn-1-yl]benzyl]acetamide]
5-lipoxygenase [1]
  IC50: 5 µM
12-lipoxygenase
  IC50: 2 µM
5-lipoxygenase [2]
  IC50: 5 µM
